The compounds below were run against T1, Ketohexokinase (KHK) (Homo sapiens, UniProt P50053) (assay: Activity measurement of ketohexokinase inhibitor in vitro (Transcreener ADP2 TR-FRET Red Assay)). Settings: purified His-tagged KHK expressed in E. coli; 30 min preincubation with inhibitor, 15 min reaction with ATP and fructose; ADP by TR-FRET (665/615 ratio).
T1 construct: His tag; made in house; host or cells: E. coli
T1 sequence (P50053 1-298): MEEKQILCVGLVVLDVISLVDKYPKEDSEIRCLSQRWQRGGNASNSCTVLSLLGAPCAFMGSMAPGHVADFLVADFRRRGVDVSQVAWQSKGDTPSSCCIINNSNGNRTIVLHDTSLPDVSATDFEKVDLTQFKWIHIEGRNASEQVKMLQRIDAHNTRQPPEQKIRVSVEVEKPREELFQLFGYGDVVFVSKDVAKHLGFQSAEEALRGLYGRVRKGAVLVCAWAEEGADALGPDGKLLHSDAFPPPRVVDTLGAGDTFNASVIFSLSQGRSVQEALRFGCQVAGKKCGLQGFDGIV
Type: biochemical
Protocol: Ketohexokinase (KHK) was expressed in E. coli, and was purified using His tag. In order to measure the activity of the purified KHK, Transcreener ADP2 TR-FRET Red Assay kit of BellBrook Labs was used. A method of measuring the amount of ADP produced using TR-FRET after reacting a solution including appropriate concentrations of a KHK protein, ATP, and fructose for 15 minutes, was used. In order to observe the activity of a ketohexokinase (KHK) inhibitor, ketohexokinase (KHK) and an inhibitor with an appropriate concentration were reacted first for 30 minutes, and then, reacted with a solution include a substrate of ketohexokinase (KHK) for 15 minutes. Then, reaction for TR-FRET was conducted for 1 hour, and fluorescence was measured using Envision apparatus of PerkinElmer Co. The predetermined value of Envision apparatus was determined according to the optimization process of TR-FRET published by BellBrook Lab. The resultant value for each concentration of the ketohexokinase (KHK) inhibitor is determined by a ratio of 665 nm wavelength and 615 nm wavelength. IC50 is analyzed by measuring the 665/615 ratio value with respect to the concentration of each inhibitor and using a statistics software (Prizm). IC50 was represented by the concentration of the inhibitor, showing 50% of the maximum inhibition activity by the inhibitor.

| SMILES | IC50 [µM] |
| --- | --- |
| C[C@H]1CCN1c1nc(N2C[C@H]3C[C@@H](C2)[C@H]3CC(=O)O)cc(C(F)(F)F)n1 [Example 1, 2-((1R,5S,6R)-3-(2-((S)-2-methylazetidine-1-yl)-6-(trifluoromethyl)pyrimidine-4-yl)-3-azabicyclo[3,1,1]heptane-6-yl)acetic Acid] | ≥ 1 |
| C[C@H]1CCN1c1nc(N2C[C@H]3C[C@@H](C2)[C@@H]3CC(=O)O)cc(C(F)(F)F)n1 [Example 2, 2-((1R,5S,6S)-3-(2-((S)-2-methylazetidine-1-yl)-6-(trifluoromethyl)pyrimidine-4-yl)-3-azabicyclo[3,1,1]heptane-6-yl)acetic Acid] | ≤ 21.2 |
| C[C@H]1CCN1c1nc(N2C[C@H]3C[C@@H](C2)[C@H]3CC(=O)O)cc(C(F)(F)F)c1C#N [Example 3, 2-((1R,5S,6R)-3-(5-cyano-6-((S)-2-methylazetidine-1-yl)-4-(trifluoromethyl)pyridine-2-yl)-3-azabicyclo[3,1,1]heptane-6-yl)acetic Acid] | ≥ 1 |

Continued, values first:

| IC50 [µM] | SMILES |
| --- | --- |
| ≤ 21.2 | N#Cc1c(C(F)(F)F)cc(N2C[C@H]3C[C@@H](C2)[C@@H]3CC(=O)O)nc1N1CCCC1 [Example 5, 2-((1R,5S,6R)-3-(5-cyano-6-(pyrrolidine-1-yl)-4-(trifluoromethyl)pyridine-2-yl)-3-azabicyclo[3,1,1]heptane-6-yl)acetic Acid] |
| ≤ 21.2 | C[C@H]1CCN1c1nc(N2C[C@H]3C[C@@H](C2)[C@@H]3CC(=O)O)cc(C(F)(F)F)c1C#N [Example 4, 2-((1R,5S,6S)-3-(5-cyano-6-((S)-2-methylazetidine-1-yl)-4-(trifluoromethyl)pyridine-2-yl)-3-azabicyclo[3,1,1]heptane-6-yl)acetic Acid] |

— patent US12122766B2, “3-azabicyclo[3,1,1]heptane derivative and pharmaceutical composition including same” (LG CHEM, LTD., priority 2018, dated 2024)
